# Measured values from PubChem BioAssay AID318 (DTP/NCI, 2004).
# Several values for one entry are separate records, joined by “and”; a condition that tells them apart may be missing. Equal entries are not always repeated. Inconclusive results and toxic doses are left out.
# System: BDF1 mice, P815 leukemia ip, survival T/C
# Experiment: NCI In Vivo Anticancer Drug Screen. Data for tumor model P815 Mast Cell Leukemia (Ascitic) (intraperitoneal) in B6D2F1 (BDF1) mice
# Conditions: endpoint: survival time, mean or median, higher = longer survival
# Description: The antitumor activity of compounds was measured in mice bearing transplantable tumors. Survival or tumor size were measured and the results are expressed as the measurement made in the treated group (T) divided by the measurement made in the vehicle treated control group (C). The tumor model used in this assay is P815 Mast Cell Leukemia (Ascitic) (intraperitoneal) in B6D2F1 (BDF1) mice
# [1] = dose: 54.0 mg/kg/injection, schedule: Q01DX010 (ip), vehicle: saline
# [2] = dose: 8.0 mg/kg/injection, schedule: Q01DX010 (ip), vehicle: saline
# [3] = dose: 31.3 mg/kg/injection, schedule: Q01DX010 (ip), vehicle: saline
# [4] = dose: 62.5 mg/kg/injection, schedule: Q01DX010 (ip), vehicle: saline
# [5] = dose: 125.0 mg/kg/injection, schedule: Q01DX010 (ip), vehicle: saline
# [6] = dose: 250.0 mg/kg/injection, schedule: Q01DX010 (ip), vehicle: saline
# [7] = dose: 50.0 mg/kg/injection, schedule: Q01DX010 (ip), vehicle: saline
# [8] = dose: 100.0 mg/kg/injection, schedule: Q01DX010 (ip), vehicle: saline
# [9] = dose: 2.0 mg/kg/injection, schedule: Q01DX010 (ip), vehicle: saline
# [10] = dose: 4.0 mg/kg/injection, schedule: Q01DX010 (ip), vehicle: saline
# [11] = dose: 200.0 mg/kg/injection, schedule: Q01DX010 (ip), vehicle: saline
# [12] = dose: 30.0 mg/kg/injection, schedule: Q01DX010 (ip), vehicle: saline
# [13] = dose: 16.0 mg/kg/injection, schedule: Q01DX010 (ip), vehicle: saline
compound,measurement,setting,value
CN(C)c1ccc(Nc2c3ccccc3nc3ccccc23)cc1,T/C,"dose: 36.0 mg/kg/injection, schedule: Q01DX010 (ip), vehicle: saline",105 % of control and 122 % of control
same,T/C,[1],120 % of control and 122 % of control
same,T/C,"dose: 80.0 mg/kg/injection, schedule: Q01DX010 (ip), vehicle: saline",166 % of control
same,T/C,"dose: 120.0 mg/kg/injection, schedule: Q01DX010 (ip), vehicle: saline",111 % of control
CCCNC(=NC)c1ccc(NC(=O)c2ccc(C(=O)Nc3ccc(C(=NC)NCCC)cc3)cc2)cc1,T/C,"dose: 5.2 mg/kg/injection, schedule: Q01DX010 (ip), vehicle: saline",121 % of control
same,T/C,[2],121 % of control
same,T/C,"dose: 12.0 mg/kg/injection, schedule: Q01DX010 (ip), vehicle: saline",121 % of control
same,T/C,"dose: 18.0 mg/kg/injection, schedule: Q01DX010 (ip), vehicle: saline",100 % of control
O=C1CCC(N2C(=O)c3ccccc3C2=O)C(=O)N1 (centres undefined),T/C,[3],104 % of control
same,T/C,[4],100 % of control
same,T/C,[5],96 % of control
same,T/C,[6],96 % of control
CC(=O)O[C@]1(C(C)=O)CC[C@H]2[C@@H]3C[C@H](C)C4=CC(=O)C=C[C@]4(C)[C@@]3(F)[C@@H](O)C[C@@]21C,T/C,"dose: 3.13 mg/kg/injection, schedule: Q01DX010 (sc), vehicle: steriod suspending solution",100 % of control
same,T/C,"dose: 6.25 mg/kg/injection, schedule: Q01DX010 (sc), vehicle: steriod suspending solution",100 % of control
same,T/C,"dose: 12.5 mg/kg/injection, schedule: Q01DX010 (sc), vehicle: steriod suspending solution",100 % of control and 106 % of control
same,T/C,"dose: 25.0 mg/kg/injection, schedule: Q01DX010 (sc), vehicle: steriod suspending solution",100 % of control
same,T/C,"dose: 100.0 mg/kg/injection, schedule: Q01DX010 (sc), vehicle: steriod suspending solution",93 % of control
O=C1C(NC(=O)C2CCCCC2)=C(N2CC2)C(=O)C(NC(=O)C2CCCCC2)=C1N1CC1,T/C,[7],88 % of control
same,T/C,[8],94 % of control
O=c1cn[nH]c(=O)[nH]1,T/C,[4],91 % of control and 95 % of control
same,T/C,[5],91 % of control and 100 % of control
same,T/C,[6],95 % of control
same,T/C,"dose: 500.0 mg/kg/injection, schedule: Q01DX010 (ip), vehicle: saline",100 % of control and 104 % of control
O=C(Nc1cccc(C(=O)Nc2ccc(C3=NCCN3)cc2)c1)c1ccc(C2=NCCN2)cc1,T/C,[1],112 % of control
C=CC(CN1CC1)OC(C)=O (centres undefined),T/C,[9],94 % of control
same,T/C,[10],100 % of control
same,T/C,[2],100 % of control
O=C(Nc1ccc(NC(=O)Nc2ccc(C3=NCCN3)cc2)cc1)Nc1ccc(C2=NCCN2)cc1,T/C,"dose: 110.0 mg/kg/injection, schedule: Q01DX010 (ip), vehicle: saline",113 % of control
same,T/C,"dose: 165.0 mg/kg/injection, schedule: Q01DX010 (ip), vehicle: saline",113 % of control
same,T/C,[6],100 % of control
same,T/C,"dose: 375.0 mg/kg/injection, schedule: Q01DX010 (ip), vehicle: saline",104 % of control
CCn1cnc2c(=S)nc[nH]c21,T/C,"dose: 15.6 mg/kg/injection, schedule: Q01DX010 (ip), vehicle: saline",94 % of control
same,T/C,[3],98 % of control and 102 % of control
same,T/C,[4],97 % of control
CSc1ncnc2nc[nH]c12,T/C,"dose: 25.0 mg/kg/injection, schedule: Q01DX010 (ip), vehicle: saline",100 % of control
same,T/C,[7],100 % of control and 115 % of control
same,T/C,[8],100 % of control and 105 % of control
same,T/C,[11],105 % of control and 110 % of control
Oc1cc(CN(CCCl)CCCl)c(O)cc1CN(CCCl)CCCl,T/C,"dose: 0.63 mg/kg/injection, schedule: Q01DX010 (ip), vehicle: saline",111 % of control
same,T/C,"dose: 1.25 mg/kg/injection, schedule: Q01DX010 (ip), vehicle: saline",116 % of control and 122 % of control
same,T/C,"dose: 2.5 mg/kg/injection, schedule: Q01DX010 (ip), vehicle: saline",172 % of control
same,T/C,"dose: 5.0 mg/kg/injection, schedule: Q01DX010 (ip), vehicle: saline",122 % of control
same,T/C,"dose: 10.0 mg/kg/injection, schedule: Q01DX010 (ip), vehicle: saline",122 % of control
N#CCSc1ncnc2nc[nH]c12,T/C,"dose: 7.5 mg/kg/injection, schedule: Q01DX010 (ip), vehicle: saline",100 % of control
same,T/C,"dose: 15.0 mg/kg/injection, schedule: Q01DX010 (ip), vehicle: saline",100 % of control and 111 % of control
same,T/C,[12],100 % of control and 111 % of control
same,T/C,"dose: 60.0 mg/kg/injection, schedule: Q01DX010 (ip), vehicle: saline",94 % of control and 122 % of control
O=C(Nc1ccc(NC2=NCCN2)cc1)c1ccc(C(=O)Nc2ccc(NC3=NCCN3)cc2)cc1,T/C,[9],110 % of control and 111 % of control
same,T/C,[10],105 % of control and 113 % of control
CN(C)c1nc(N(C)C)nc(N(C)C)n1,T/C,"dose: 18.8 mg/kg/injection, schedule: Q01DX010 (ip), vehicle: saline",94 % of control and 102 % of control
same,T/C,"dose: 37.5 mg/kg/injection, schedule: Q01DX010 (ip), vehicle: saline",94 % of control
same,T/C,"dose: 75.0 mg/kg/injection, schedule: Q01DX010 (ip), vehicle: saline",97 % of control and 102 % of control
same,T/C,"dose: 150.0 mg/kg/injection, schedule: Q01DX010 (ip), vehicle: saline",102 % of control and 107 % of control
Oc1ccccc1C(Nc1nc2ccccc2s1)c1ccc2cccnc2c1O (centres undefined),T/C,"dose: 62.5 mg/kg/injection, schedule: Q01DX015 (ip), vehicle: other",90 % of control
same,T/C,"dose: 125.0 mg/kg/injection, schedule: Q01DX015 (ip), vehicle: other",120 % of control
same,T/C,"dose: 250.0 mg/kg/injection, schedule: Q01DX015 (ip), vehicle: other",98 % of control
Cc1c(O)ccc(=O)n1O,T/C,"dose: 49.0 mg/kg/injection, schedule: Q01DX015 (ip), vehicle: other",95 % of control
same,T/C,"dose: 73.0 mg/kg/injection, schedule: Q01DX015 (ip), vehicle: other",113 % of control
same,T/C,"dose: 110.0 mg/kg/injection, schedule: Q01DX015 (ip), vehicle: other",105 % of control
same,T/C,"dose: 165.0 mg/kg/injection, schedule: Q01DX015 (ip), vehicle: other",100 % of control
same,T/C,"dose: 247.0 mg/kg/injection, schedule: Q01DX015 (ip), vehicle: other",95 % of control
CCCCOP(=S)(N1CC1)N1CC1,T/C,[10],120 % of control and 122 % of control
same,T/C,[13],90 % of control and 122 % of control
same,T/C,"dose: 32.0 mg/kg/injection, schedule: Q01DX010 (ip), vehicle: saline",90 % of control
Nc1nc(SCc2ccccc2)c2[nH]cnc2n1,T/C,[2],100 % of control and 105 % of control
same,T/C,[13],100 % of control and 111 % of control
same,T/C,"dose: 64.0 mg/kg/injection, schedule: Q01DX010 (ip), vehicle: saline",100 % of control and 122 % of control
CNc1nc(Nc2ccc(C3=NCCN3)cc2)nc(Nc2ccc(C3=NCCN3)cc2)n1,T/C,"dose: 13.3 mg/kg/injection, schedule: Q01DX010 (ip), vehicle: saline",108 % of control
same,T/C,"dose: 20.0 mg/kg/injection, schedule: Q01DX010 (ip), vehicle: saline",108 % of control
same,T/C,[12],108 % of control
same,T/C,"dose: 45.0 mg/kg/injection, schedule: Q01DX010 (ip), vehicle: saline",116 % of control
CN(C)CC(=O)c1ccc(O)c(O)c1,T/C,[11],120 % of control
same,T/C,"dose: 300.0 mg/kg/injection, schedule: Q01DX010 (ip), vehicle: saline",100 % of control
same,T/C,"dose: 450.0 mg/kg/injection, schedule: Q01DX010 (ip), vehicle: saline",95 % of control
O=C(O)CCCc1ccc(N(CCCl)CCCl)cc1,T/C,"dose: 3.13 mg/kg/injection, schedule: Q01DX010 (ip), vehicle: saline",100 % of control
same,T/C,"dose: 6.25 mg/kg/injection, schedule: Q01DX010 (ip), vehicle: saline",105 % of control
same,T/C,"dose: 12.5 mg/kg/injection, schedule: Q01DX010 (ip), vehicle: saline",122 % of control
NC(Cc1ccc(N(CCCl)CCCl)cc1)C(=O)O (centres undefined),T/C,"dose: 4.0 mg/kg/injection, schedule: Q01DX010 (ip), vehicle: other",120 % of control
same,T/C,"dose: 8.0 mg/kg/injection, schedule: Q01DX010 (ip), vehicle: other",100 % of control
